Data set [1] deals with HIV-1ADA. In words: Viral infection assay, ADA Env (wild type, ΔV1V2, CD4-independent N197S). The note with it: for Fold change: mutant/wild-type IC50. In kind it is cell-based. On the procedure:
To study CD4-independent infection, the full-length HIV-1ADA N197S Env mutant was used. This Env is an ADA-HXBc2 chimera with an N197S change. The control “wild-type” ADA Env used in these experiments is also an ADA-HXBc2 chimera.
(§1) Production of recombinant HIV-1 expressing luciferase. […] After 48 hours, the supernatant was collected, buffered with 50 mM Hepes pH 7.4 (final concentration) and centrifuged for 5 minutes at 750×g and 4° C. The virus-containing supernatant was used directly or frozen at −80° C.
(§2) Viral infection assay. Each test compound was serially diluted in DMSO in a 96-well B&W isoplate (PerkinElmer, Boston, Mass.) using an HP D300 Digital Dispenser, to a final volume of 450 nl. DMSO was used as a control. Viruses pseudotyped with a specific Env were added to each well and incubated briefly at room temperature. Cf2Th-CD4/CCR5 cells were detached with StemPro Accutase Cell Dissociation Reagent (Invitrogen, cat #A11105-01), washed once, and 5000 cells were added to each well. […] Following incubation, the medium was aspirated and cells were lysed with 30 μl of Passive Lysis Buffer (Promega, cat #E1941). The activity of the firefly luciferase, which was used as a reporter protein in the system, was measured with a Centro LB 960 luminometer (Berthold Technologies, Oak Ridge, Tenn.). One hundred microliters of assay buffer (15 mM MgSO4, 15 mM KH2PO4/K2HPO4 pH 7.8, 1 mM ATP and 1 mM DTT) was injected to each well, followed by a 50 μl injection of 1 mM Dluciferin potassium salt (BD Pharmingen, San Jose, Calif.); luminescence was measured for 2 sec. Infection of PBMC was done as above, but 20,000-40,000 cells/well and viruses concentrated by ultracentrifugation were used. After four hours of incubation with viruses, the cells were centrifuged at 200×g for 6 minutes at 4° C., resuspended in 100 μl RPMI-PBMC medium and incubated at 37° C. for an additional 36-40 hours (total 40-44 hours). Supernatant was removed after centrifugation at 400×g for 5 minutes and cells were processed to detect luciferase activity, as described above.

For data set [2], the system named is HXBc2-YU2 Chimeras (CCR5-tropic). The experiment in a line: Viral infection assay, HXBc2-YU2 chimeras (CCR5-tropic). The format is cell-based, HIV-1. On the procedure: as §1
as §2, with “Infection of PBMC was done as above, but 20,000-40,000 cells/well and viruses concentrated by ultracentrifugation were used. After four hours of incubation with viruses, the cells were centrifuged at 200×g for 6 minutes at 4° C., resuspended in 100 μl RPMI-PBMC medium and incubated at 37° C. for an additional 36-40 hours (total 40-44 hours). Supernatant was removed after centrifugation at 400×g for 5 minutes and cells were processed to detect luciferase activity, as described above.” left out

The subject of data set [3] is HIV-1HXBc2. The experiment in a line: Viral infection assay, CXCR4-tropic virus, Cf2Th-CD4/CXCR4 cells. The note with it: HIV-1HXBc2, Cf2Th cells expressing CD4 and CXCR4. The format is cell-based.
Data set [4] deals with SIVmac239. In words: Viral infection assay, SIV Env. The format is cell-based. The note with it: virus with SIVmac239 Env. On the procedure: as §1
as §2, with “Infection of PBMC was done as above, but 20,000-40,000 cells/well and viruses concentrated by ultracentrifugation were used. After four hours of incubation with viruses, the cells were centrifuged at 200×g for 6 minutes at 4° C., resuspended in 100 μl RPMI-PBMC medium and incubated at 37° C. for an additional 36-40 hours (total 40-44 hours). Supernatant was removed after centrifugation at 400×g for 5 minutes and cells were processed to detect luciferase activity, as described above.” left out

For data set [5], the system named is CEM #21 cells. The experiment in a line: Viability assay, CEM#21 target cells. The format is cell-based. On the procedure: H-JRFL#1336 (effector) and H-Fluc4 (control) cells were grown in DMEM containing 10% FBS, 100 μg/ml streptomycin, 100 units/ml penicillin, 200 μg/ml G418, 1 μg/ml puromycin and 2 μg/ml doxycycline. H-JRFL#13 cells carry an HIV-1JR-FL env gene that is induced by growing the cells in the absence of doxycycline (Tet-Off expression system). H-Fluc4 cells, which carry a firefly luciferase gene that is induced in the absence of doxycycline, were used as specificity controls. Both cell lines were derived from HeLa cells and constitutively express the tetracycline-regulated transactivator (Tet-Off expression system). CEM#21 target cells were grown in RPMI containing 10% FBS, 100 μg/ml streptomycin, 100 units/ml penicillin and 1 μg/ml puromycin. […]
Viability Assay. […] The plate was equilibrated to room temperature, 15 μl of CellTiterGlo (Promega) was added to each well and luminescence was measured as described above. […] 30 μl (Cf2Th cells) or 100 μl (PBMC) of CellTiterGlo was added and luminescence was measured as described above.

For data set [6], the system named is HIV-1JR-FL. In words: Washout experiment, HIV-1JR-FL infection. In kind it is cell-based. The note with it: washing out before infection. On the procedure:
For washout experiments, different concentrations of 18A were incubated with the recombinant viruses at 37° C. for 20 minutes. The viruses were laid on a 20% sucrose cushion and ultracentrifuged at 30,000 RPM in an SW55 rotor for 1.5 hours at 4° C. After the supernatant was aspirated, viruses were suspended in 500-1000 μl medium and 90 μl of the virus suspension was used to infect 5000 Cf2Th-CD4/CCR5 cells (5 replicates). The cells were incubated for 48 hours and processed as described above. Sensitivity of recombinant viruses to cold inactivation was measured.

As for `O=C(N/N=C/c1ccc(O)cc1)Nc1cccc2nsnc12` [Compound 18A], the IC50 in data set [1] (ADA Env wild type) is 12.8 ± 1.5 µM; in data set [1] (ADA Env ΔV1V2), 10.8 ± 2 µM; in data set [2] (HXBc2 (YU2 V3) chimera) it was 20.2 ± 2.2 µM; in data set [2] (HXBc2 (YU2 V123) chimera) it was 12.5 ± 1.6 µM; in data set [3] it was approximately 25 µM. The Fold change in data set [1] (ADA Env wild type) worked out at 1; in data set [1] (ADA Env ΔV1V2) it was 0.8. Also, the “infection of CD4-negative, CCR5-expressing cells” value in data set [1] (CD4-independent HIV-ADA N197S) is on record as “protected CD4-negative, CCR5-expressing cells from infection”. In addition, the “entry into CD4/CCR5-expressing cells” value in data set [1] (wild-type HIV-1ADA and HIV-1ADA N197S) is “blocked by 18A with a similar profile of inhibition”. The inhibition of infection result in data set [4] was “significantly less potent”. For the same compound, in data set [5], the CC50 was 26.6 ± 2.1 µM. Besides, the “reversibility of inhibition of HIV-1 infection” value in data set [6] is “reversible”.

By IC50 is commonly meant the concentration that inhibits the measured activity by half. High values mean weaker potency in that assay, low ones greater potency in that assay. Broadly, the CC50 is the concentration at which the toxic effect on the cells reaches its halfway point. Read a low CC50 as greater toxicity to the cells.

For the origin of these results see patent US20170298056A1, “SMALL MOLECULE INHIBITORS OF HIV-1 ENTRY AND METHODS OF USE THEREOF” (Dana-Farber Cancer Institute, Inc., priority 2014, published 2017).
